From patent US9649394B2, “Compositions and methods for in vivo imaging” (The General Hospital Corporation, priority 2010, dated 2017)
Where two headings read alike, the source gives them in different places.

Experiments:
[1] = target: T1, PARP1 (Homo sapiens, UniProt P09874); assay: Colorimetric PARP1 activity assay (Trevigen), IC50 determination; assay type: biochemical
T1 construct: purchased Trevigen, Gaithersburg, Md
Description: A commercially available colorimetric assay (Trevigen, Gaithersburg, Md.) was used to measure PARP activity in vitro in the presence of inhibitors. […] All experiments were carried out in triplicate. […] All reaction mixtures were adjusted to a final volume of 50 μL and a maximum final concentration 0.4% DMSO in assay buffer. The remainder of the assay was performed according to the manufacturer's instructions. PARP activity was measured by absorbance at 450 nm in each well using a Safire 2 microplate reader (Tecan Group, Männedorf, Switzerland). IC50 values were calculated using Prism software (GraphPad, La Jolla, Calif.).
A commercially available colorimetric assay (Trevigen, Gaithersburg, Md.) was used to measure PARP activity in vitro in the presence of inhibitors. […] All experiments were carried out in triplicate. […] All reaction mixtures were adjusted to a final volume of 50 μL and a maximum final concentration 0.4% DMSO in assay buffer. The remainder of the assay was performed according to the manufacturer's instructions. PARP activity was measured by absorbance at 450 nm in each well using a Safire2 microplate reader. IC50 values were calculated using the Prism software package.

[2] = tested on: PARP1/PARP2; assay: Comparison of AZD2281-BODIPY FL uptake and PARP1/PARP2 expression in cell lines; assay type: cell-based; settings: fixed cells, 20 minutes incubation
Description: RAW 264.7, Panc-1, MIA Paca2, A2780, OVCAR429, UCI 101, UCI 107, SKOV-3, OVCAR-3, and OV-90 cells (200 μL, 35,000 cells/mL) were each seeded in their respective growth medium on 96-well plates and allowed to attach for 48 hours. […] Cells were then fixed with paraformaldehyde (4% in PBS) and washed with ice cold PBS/0.1% Triton X-100/0.5% bovine serum albumin (3×200 μL, 3rd wash left for 30 min). Cells were incubated with anti-PARP-1/2 Rab (1:50; SCBT, Santa Cruz, Calif.) at 4° C. overnight. Cells were washed with PBS/0.1% Triton X-100 (3×200 μL) before stained with secondary IgG-Cy5 Gab (1:100; Millipore, Billerica, Mass.) for 3 h at 4° C. Cells were then washed with PBS (1×, 200 μL), stained with Hoechst (Invitrogen, Carlsbad, Calif.) and blue whole cell stain (Thermo Scientific, Waltham, Mass.) for 30 minutes at room temperature, and washed with PBS (3×, 200 μL) before imaging and quantification of the respective fluorescence signals.

[3] = tested on: HT1080 cells; assay: Life cell imaging, in vitro uptake and clearance kinetics; assay type: cell-based
Description: For in vitro kinetic studies, HT1080 cells were labeled with a 1 μM concentration of AZD2281 fluorophore conjugate in cell culture medium and imaged on an inverted Deltavision epifluorescence microscope using a 37° C. heated stage and 5% CO2 atmosphere for various times. After subtracting the background fluorescence, the data were fitted to an exponential association curve. […] Cells were washed twice in cell culture media and imaged continuously (BODIPYFL conjugate) or after various time points (BODIPY578 and BODIPY650). The loss in fluorescence was fitted to a biexponential decay curve.

[4] = tested on: HT-1080 cells expressing H2B-apple; assay: Intravital imaging, window chamber mice with HT-1080 H2B-apple cells; assay type: in vivo
Description: For the in vivo studies, mice with window chambers were implanted with 1 million HT-1080 cells expressing H2B-apple fluorescence protein. 75 nmol of AZD2281-BODIPYFL were dissolved in 75 μL of 1:1:DMAC:solutol and 75 μL of PBS and injected via tail vein. Images of the vessels were taken using a 20× water immersion objective on a laser scanning confocal microscope while the mouse was anesthetized with isoflurane.

[5] = tested on: SKOV-3, MIA Paca2, A2780, Panc-1 tumors; assay: Tumor versus muscle fluorescence uptake in Nu/Nu mice, excised tissues; assay type: in vivo; settings: 75 nmol via tail vein, 45 minutes
Description: For ^18F-AZD2281 standardized uptake values, five Nu/Nu mice each received four subcutaneous injections containing SKOV-3, MIA Paca2, A2780, or Panc-1 cells in the flanks and shoulders (2.5×10^6 cells in 100 μL 70:30 PBS/BD matrigel per injection) (BD Biosciences, Bedford, Mass.). Tumors were allowed to grow for two weeks before imaging. 75 nmol of AZD2281-BODIPYFL were dissolved in 75 μL of 1:1:DMAC:solutol and 75 μL of PBS and injected via tail vein. The agent was allowed to circulate and clear for 45 minutes, before the mice were sacrificed, tumors and muscle tissue excised and the relative fluorescence uptake of tissues quantified against mice which were injected with just 1:1:DMAC:solutol.

[6] = tested on: MDA-MB-436 cells; assay: AZD2281-TCO / Texas Red-Tz bioorthogonal reaction and imaging in live MDA-MB-436 cells; assay type: cell-based; settings: sequential AZD2281-TCO (7)/Texas Red-Tz (8)
Description: Cells were then incubated with Texas Red-Tz (8) (25 μL, 20 μM) for 20 minutes (37° C.) before the medium was removed and cells were washed (1×, medium, 500 μL). […] Cells were washed with PBS (3×500 μL), fixed with paraformaldehyde (4% in PBS) and washed with PBS (3×500 μL, time between each wash=5 minutes). PBS was removed and cells mounted using Prolong Gold (Invitrogen, Carlsbad, Calif.) before imaging.
Cells were then incubated with Texas Red-Tz (8) (25 μL, 20 μM) for 20 minutes (37° C.) before the medium was removed and cells were washed (1×, medium, 500 μL). […] Cells were washed with PBS (3×500 μL), fixed with paraformaldehyde (4% in PBS) and washed with PBS (3×500 μL, time between each wash=5 min). […]
Cells were observed on a Nikon 80i (Nikon, Tokyo JP) microscope equipped with an ImagEM camera (Hammamatsu Photonics, Tokyo JP). […] For each image, both cell structures and nuclei structures have been obtained using the appropriate fluorescence filters and appropriate excitation signal levels to avoid collecting auto-fluorescence. […] Within each image and for each cell, the fluorescence signal for the total cell and the signal in the nuclear area was calculated using the corresponding mask as a spatial filter. […] The ratio of the fluorescent signal in the cytosol region over the signal in the nuclear region was then calculated. […]

[7] = tested on: MDA-MB-436 tumors; assay: PET-CT imaging of MDA-MB-436 tumor-bearing mice, with and without AZD2281; assay type: in vivo; settings: 1 mg AZD2281 BID, then re-injection of probe
Description: Non-tumor bearing Nu/Nu mice were injected with (6^18F) and used for organ distribution immediately after injection over a time period of 2 hours. Tumor-bearing mice received s.c. injections with 5×10^6 MDA-MB-436 cells (American Type Culture Collection) in Matrigel (BD Biosciences) into each flank and underwent imaging 7 days later (injection of (6^18F) and immediate imaging over a time period of 2 hours). All mice were anesthetized (isoflurane 1.5%; O2 2 L/min) during imaging with a gas delivery system integrated into a multimodal imaging cartridge. All animal experiments were approved by Massachusetts General Hospital's Institutional Review Committee.
Images were acquired on the Siemens Inveon PET-CT. Each PET acquisition was 120 minutes in duration. PET was reconstructed from 600 million coincidental 511 keV photon counts on a series of LSO (lutetium oxyorthosilicate) scintillating crystals. Counts were rebinned in 3D by registering photons spanning no more than 3 consecutive rings and reconstructed into sinograms using a high resolution Fourier Rebin algorithm. Sinograms also yielded a 3D mapping of positron signal using a 2D filtered back-projection algorithm and a Ramp filter with a Nyquist cut-off of 0.5. […] Data are expressed as standard uptake values (SUV), which normalizes activity measurements to body weight and injected activity. […]

[8] = tested on: A2780 tumors; assay: Non-invasive monitoring of treatment response in tumor-bearing Nu/Nu mice (SUV); assay type: in vivo; settings: treatment with Olaparib
Description: ^18F-AZD2281 was synthesized as described herein. Nu/Nu mice bearing either A2780 tumors (treatment response) or A2780, Paca2, Panc1 and SKOV3 (differential uptake) were injected with the hot probe (500-750 μCi) and imaged ˜1.5 hours thereafter. Treatment consisted of injection of 0.5-1.0 mg AZD2281 (Olaparib) 18 hours before imaging (ip, interperitoneal) or ˜1.5-3.5 hours before imaging (iv, intravenous). Uptake was determined non-invasively by drawing SUVs (Standard Uptake Values).

[9] = 1 μM, HT1080, exponential association fit
[10] = labeled at 1 μM for 1 hour, washed, biexponential decay fit

T1 sequence (P09874 whole entry): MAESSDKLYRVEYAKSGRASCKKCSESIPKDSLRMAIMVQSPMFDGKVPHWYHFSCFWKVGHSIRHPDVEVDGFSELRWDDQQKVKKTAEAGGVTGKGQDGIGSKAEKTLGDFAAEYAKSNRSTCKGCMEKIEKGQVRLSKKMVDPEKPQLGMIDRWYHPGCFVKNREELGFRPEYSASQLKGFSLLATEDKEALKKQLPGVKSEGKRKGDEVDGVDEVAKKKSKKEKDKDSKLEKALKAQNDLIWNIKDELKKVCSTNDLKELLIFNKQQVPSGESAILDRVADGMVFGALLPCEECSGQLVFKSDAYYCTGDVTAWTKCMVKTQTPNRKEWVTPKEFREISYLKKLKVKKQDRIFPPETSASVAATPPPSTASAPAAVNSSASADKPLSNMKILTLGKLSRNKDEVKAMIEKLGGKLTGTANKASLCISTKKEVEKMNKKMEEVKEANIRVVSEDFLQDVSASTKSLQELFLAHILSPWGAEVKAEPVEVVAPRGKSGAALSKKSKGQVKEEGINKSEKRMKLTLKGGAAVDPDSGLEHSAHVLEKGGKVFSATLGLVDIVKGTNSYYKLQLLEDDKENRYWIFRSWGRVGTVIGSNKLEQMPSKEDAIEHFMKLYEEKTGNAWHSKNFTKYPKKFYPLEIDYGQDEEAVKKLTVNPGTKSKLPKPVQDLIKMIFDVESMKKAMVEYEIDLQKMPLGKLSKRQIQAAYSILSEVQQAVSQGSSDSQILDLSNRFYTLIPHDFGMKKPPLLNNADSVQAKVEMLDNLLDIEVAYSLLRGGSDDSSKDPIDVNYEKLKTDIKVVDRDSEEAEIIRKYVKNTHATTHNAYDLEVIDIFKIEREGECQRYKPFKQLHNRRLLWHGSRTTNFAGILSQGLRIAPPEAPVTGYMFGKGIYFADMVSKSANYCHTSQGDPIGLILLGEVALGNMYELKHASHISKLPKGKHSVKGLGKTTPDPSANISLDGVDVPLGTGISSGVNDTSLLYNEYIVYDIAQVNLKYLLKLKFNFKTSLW

How did the IC50 [1] turn out when `O=C(CF)N1CCN(C(=O)c2cc(Cc3n[nH]c(=O)c4ccccc34)ccc2F)CC1` [17^19F] was run?
The IC50 was 5.2 ± 1.1 nM.

How did the cellular localization [2] turn out when `Cc1cc(C)n2c1C=C1C=CC(CCC(=O)N3CCN(C(=O)c4cc(Cc5n[nH]c(=O)c6ccccc56)ccc4F)CC3)=[N+]1[B-]2(F)F` [AZD2281-BODIPY FL] was run?
Its cellular localization is “localizes with the nucleus”.

What about the “Uptake, Nucleus” value [3, 9] of the same compound?
The value was “Nucleus = 1.1 min”.

What about the “Uptake, Perinuclear” value [3, 9] of the same compound?
The value was “Perinuclear = 1.2 min”.

What about the “Clearance (weighted), Nucleus” value [3, 10] of the same compound?
Its value is “Nucleus = slow”.

And the “Clearance (weighted), Perinuclear” value [3, 10]?
The value was “Perinuclear = 1.7 min”.

What about the “time after which non-specific uptake cleared, revealing nuclear uptake” value ([4]; 75 nmol via tail vein) of the same compound?
The value was 1 h.

And the “distribution in tumor after iv injection” value ([4]; first in vascular system, then tumor cells)?
Its value is “concentrates in each and every tumor cell of the tumor”.

And the “uptake in muscle compared to tumor tissues” value [5]?
Its value is “very little of the compound gets taken up by muscle cells compared to the tumor tissues”.

Which IC50 ([1]; Example 1, 0.5 units PARP HSA, 10 minutes, read-out: IC50) does the source give for `O=C(CCCC(=O)N1CCN(C(=O)c2cc(Cc3n[nH]c(=O)c4ccccc34)ccc2F)CC1)NCCNC(=O)C1C[C@@H]2C=C[C@H]1C2` (stereo partly shown) [AZD2281-NOB] here?
The IC50 was 10.1 ± 1.3 nM.

Which “spatial correlation of Texas Red staining with anti-PARP1 Mab staining” value [6] does the source give for `O=C(CCCC(=O)N1CCN(C(=O)c2cc(Cc3n[nH]c(=O)c4ccccc34)ccc2F)CC1)NCCNC(=O)OC1CC/C=C/CCC1` (stereo not shown) [AZD2281-TCO] here?
Its value is “excellent spatial correlation”.

`O=C(c1cc(Cc2n[nH]c(=O)c3ccccc23)ccc1F)N1CCN(C(=O)C2CC2)CC1` [AZD2281] was tested. Which “effect on uptake of 18F-AZD2281 into tumors” value [7] did it give?
The value was “inhibition of the probe s uptake into the tumors”.

Which “ability to distinguish between treated and untreated tumors (tumor/muscle signal intensity)” value [8] does the source give for `OC[C@H]1O[C@@H](O)[C@H]([18F])[C@@H](O)[C@@H]1O` [FDG] here?
Its value is “not able”.
